According to PubChem BioAssay AID1259407 (Chemical Carcinogenesis Research Information System (CCRIS), 2018):
Active and inactive are the calls of the source. The rule behind the calls is not given here.

Tested on: CCRIS mutagenicity, Ames/micronucleus/aberration tests
Assay: CCRIS mutagenicity studies
[1] = Test System: AMES SALMONELLA TYPHIMURIUM, Strain/Indicator: TA100, Metabolic Activation: NONE, Method: PREINCUBATION
[2] = Test System: AMES SALMONELLA TYPHIMURIUM, Strain/Indicator: TA98, Metabolic Activation: NONE, Method: PREINCUBATION

C1N2CN3CN1CN(C2)C3
mutagenic call (End Point: In vitro chromosomal aberrations, Test System: Chinese hamster lung (CHL/IU) cells, Metabolic Activation: Rat, Liver, S9, Phenobarbital and 5,6-benzoflavone): inactive; negative | mutagenic call (Test System: AMES SALMONELLA TYPHIMURIUM, Strain/Indicator: TA97, Metabolic Activation: HAMSTER, LIVER, S-9, AROCLOR 1254 (5 OR 30%), Method: PREINCUBATION): inactive; negative | mutagenic call (Test System: AMES SALMONELLA TYPHIMURIUM, Strain/Indicator: TA97, Metabolic Activation: HAMSTER, LIVER, S-9, AROCLOR 1254 (10%), Method: PREINCUBATION): inactive; negative | mutagenic call (Test System: AMES SALMONELLA TYPHIMURIUM, Strain/Indicator: TA97, Metabolic Activation: NONE, Method: PREINCUBATION): inactive; negative | mutagenic call (Test System: AMES SALMONELLA TYPHIMURIUM, Strain/Indicator: TA97, Metabolic Activation: RAT, LIVER, S-9, AROCLOR 1254 (10%), Method: PREINCUBATION): inactive; negative | mutagenic call (Test System: AMES SALMONELLA TYPHIMURIUM, Strain/Indicator: TA97, Metabolic Activation: RAT, LIVER, S-9, AROCLOR 1254 (30%), Method: PREINCUBATION): inactive; negative | mutagenic call (Test System: AMES SALMONELLA TYPHIMURIUM, Strain/Indicator: TA98, Metabolic Activation: HAMSTER, LIVER, S-9, AROCLOR 1254 (10 OR 30%), Method: PREINCUBATION): inactive; negative | mutagenic call (Test System: AMES SALMONELLA TYPHIMURIUM, Strain/Indicator: TA98, Metabolic Activation: RAT, LIVER, S-9, AROCLOR 1254 (10 OR 30%), Method: PREINCUBATION): inactive; negative | mutagenic call (Test System: AMES SALMONELLA TYPHIMURIUM, Strain/Indicator: TA98, Metabolic Activation: RAT, LIVER, S-9, KC 500, Method: PREINCUBATION): active; positive | mutagenic call (Test System: AMES SALMONELLA TYPHIMURIUM, Strain/Indicator: TA98, Metabolic Activation: RAT, LIVER, S-9, PCB, Method: PREINCUBATION): inactive; negative | mutagenic call (Test System: AMES SALMONELLA TYPHIMURIUM, Strain/Indicator: TA100, Metabolic Activation: HAMSTER, LIVER, S-9, AROCLOR 1254 (10 OR 30%), Method: PREINCUBATION): inactive; negative | mutagenic call [1]: inactive; negative | mutagenic call (Test System: AMES SALMONELLA TYPHIMURIUM, Strain/Indicator: TA100, Metabolic Activation: RAT, LIVER, S-9, AROCLOR 1254 (10 OR 30%), Method: PREINCUBATION): inactive; negative | mutagenic call (Test System: AMES SALMONELLA TYPHIMURIUM, Strain/Indicator: TA100, Metabolic Activation: RAT, LIVER, S-9, KC 500, Method: PREINCUBATION): active; positive | mutagenic call (Test System: AMES SALMONELLA TYPHIMURIUM, Strain/Indicator: TA100, Metabolic Activation: RAT, LIVER, S-9, PCB, Method: PREINCUBATION): inactive; negative | mutagenic call (Test System: AMES SALMONELLA TYPHIMURIUM, Strain/Indicator: TA1535, Metabolic Activation: HAMSTER, LIVER, S-9, AROCLOR 1254 (10 OR 30%), Method: PREINCUBATION): inactive; negative | mutagenic call (Test System: AMES SALMONELLA TYPHIMURIUM, Strain/Indicator: TA1535, Metabolic Activation: NONE, Method: PREINCUBATION): inactive; negative | mutagenic call (Test System: AMES SALMONELLA TYPHIMURIUM, Strain/Indicator: TA1535, Metabolic Activation: RAT, LIVER, S-9, AROCLOR 1254 (10 OR 30%), Method: PREINCUBATION): inactive; negative | mutagenic call (Test System: AMES SALMONELLA TYPHIMURIUM, Strain/Indicator: TA1535, Metabolic Activation: RAT, LIVER, S-9, KC 500, Method: PREINCUBATION): inactive; negative | mutagenic call (Test System: AMES SALMONELLA TYPHIMURIUM, Strain/Indicator: TA1537, Metabolic Activation: HAMSTER, LIVER, S-9, AROCLOR 1254 (10%), Method: PREINCUBATION): inactive; negative | mutagenic call (Test System: AMES SALMONELLA TYPHIMURIUM, Strain/Indicator: TA1537, Metabolic Activation: NONE, Method: PREINCUBATION): inactive; negative | mutagenic call (Test System: AMES SALMONELLA TYPHIMURIUM, Strain/Indicator: TA1537, Metabolic Activation: RAT, LIVER, S-9, AROCLOR 1254 (10%), Method: PREINCUBATION): inactive; negative | mutagenic call (Test System: AMES SALMONELLA TYPHIMURIUM, Strain/Indicator: TA1537, Metabolic Activation: RAT, LIVER, S-9, KC 500, Method: PREINCUBATION): inactive; negative | mutagenic call (Test System: AMES SALMONELLA TYPHIMURIUM, Strain/Indicator: TA1538, Metabolic Activation: HAMSTER, LIVER, S-9, AROCLOR 1254 (10 OR 30%), Method: PREINCUBATION): inactive; negative | mutagenic call (Test System: AMES SALMONELLA TYPHIMURIUM, Strain/Indicator: TA1538, Metabolic Activation: NONE, Method: PREINCUBATION): inactive; negative | mutagenic call (Test System: AMES SALMONELLA TYPHIMURIUM, Strain/Indicator: TA1538, Metabolic Activation: RAT, LIVER, S-9, AROCLOR 1254 (10 OR 30%), Method: PREINCUBATION): inactive; negative | mutagenic call (Test System: AMES SALMONELLA TYPHIMURIUM, Strain/Indicator: TA1538, Metabolic Activation: RAT, LIVER, S-9, KC 500, Method: PREINCUBATION): inactive; negative | mutagenic call (Test System: Ames Salmonella typhimurium, Strain/Indicator: TA98, Metabolic Activation: None, Method: Preincubation): inactive; negative | mutagenic call (Test System: Ames Salmonella typhimurium, Strain/Indicator: TA98, Metabolic Activation: Rat, Liver, S9, Sodium phenobarbital and 5,6-benzoflavone (10%), Method: Preincubation): inactive; negative | mutagenic call (Test System: Ames Salmonella typhimurium, Strain/Indicator: TA100, Metabolic Activation: None, Method: Preincubation): inactive; negative | mutagenic call (Test System: Ames Salmonella typhimurium, Strain/Indicator: TA100, Metabolic Activation: Rat, Liver, S9, Sodium phenobarbital and 5,6-benzoflavone (10%), Method: Preincubation): inactive; negative | mutagenic call (Test System: Ames Salmonella typhimurium, Strain/Indicator: TA1535, Metabolic Activation: None, Method: Preincubation): inactive; negative | mutagenic call (Test System: Ames Salmonella typhimurium, Strain/Indicator: TA1535, Metabolic Activation: Rat, Liver, S9, Sodium phenobarbital and 5,6-benzoflavone (10%), Method: Preincubation): inactive; negative | mutagenic call (Test System: Ames Salmonella typhimurium, Strain/Indicator: TA1537, Metabolic Activation: None, Method: Preincubation): inactive; negative | mutagenic call (Test System: Ames Salmonella typhimurium, Strain/Indicator: TA1537, Metabolic Activation: Rat, Liver, S9, Sodium phenobarbital and 5,6-benzoflavone (10%), Method: Preincubation): inactive; negative | mutagenic call (Test System: E. COLI, Strain/Indicator: WP2 UVRA, Metabolic Activation: NONE, Method: PREINCUBATION): inactive; negative | mutagenic call (Test System: E. COLI, Strain/Indicator: WP2 UVRA, Metabolic Activation: RAT, LIVER, S-9, KC 500, Method: PREINCUBATION): inactive; negative | mutagenic call (Test System: E. coli, Strain/Indicator: WP2uvrA/pKM101, Metabolic Activation: None, Method: Preincubation): inactive; negative | mutagenic call (Test System: E. coli, Strain/Indicator: WP2uvrA/pKM101, Metabolic Activation: Rat, Liver, S9, Sodium phenobarbital and 5,6-benzoflavone (10%), Method: Preincubation): inactive; negative

Nc1cc(N)c(-c2ccccc2)c([N+](=O)[O-])c1
mutagenic call [2]: active; positive | mutagenic call (Test System: AMES SALMONELLA TYPHIMURIUM, Strain/Indicator: TA98, Metabolic Activation: RAT, LIVER, S-9, KANECHLOR 500, Method: PREINCUBATION): active; positive

CCN(CC)S(=O)(=O)c1ccc(N)cc1
mutagenic call [2]: inactive; negative | mutagenic call (Test System: AMES SALMONELLA TYPHIMURIUM, Strain/Indicator: TA98, Metabolic Activation: RAT, LIVER, S-9, AROCLOR 1254, Method: PREINCUBATION): inactive; negative | mutagenic call [1]: inactive; negative | mutagenic call (Test System: AMES SALMONELLA TYPHIMURIUM, Strain/Indicator: TA100, Metabolic Activation: RAT, LIVER, S-9, AROCLOR 1254, Method: PREINCUBATION): inactive; negative
